Laboratory results published in PubChem BioAssay AID192 (DTP/NCI, 2004).
“And” between values parts separate entries of the source, which are not always exact repeats. Equal entries are not always repeated. Toxic doses and inconclusive results are not listed. The calls were made as follows: active = survival T/C of 150% or more; inactive = T/C below 125% in these data. Square brackets hold non-standard residues; d marks the D form. Peptide text beside a SMILES is read from it. * marks the point of attachment. ξ: configuration not given here. Cbz = O=C(OCc1ccccc1)*; ξK = NCCCCC(N)C(=O)O

System: BDF1 mice, B16 melanoma ip, median survival T/C
Experiment: NCI In Vivo Anticancer Drug Screen. Data for tumor model B16 Melanoma (intraperitoneal) in B6D2F1 (BDF1) mice
Settings: endpoint: median survival time, higher = longer survival
How it was run: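 Transplantable tumor model; survival or tumor size measured; reported as T/C, treated over vehicle control.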

[1] = dose: 100.0 mg/kg/injection, schedule: Q01DX009 (ip), vehicle: Klucel (hydroxypropylcellulose) (HPC)
[2] = dose: 200.0 mg/kg/injection, schedule: Q01DX009 (ip), vehicle: Klucel (hydroxypropylcellulose) (HPC)
[3] = dose: 100.0 mg/kg/injection, schedule: Q01DX009 (ip), vehicle: saline with Tween-80
[4] = dose: 200.0 mg/kg/injection, schedule: Q01DX009 (ip), vehicle: saline with Tween-80
[5] = dose: 400.0 mg/kg/injection, schedule: Q01DX009 (ip), vehicle: saline with Tween-80
[6] = dose: 100.0 mg/kg/injection, schedule: Q04DX003 (ip), vehicle: Klucel (hydroxypropylcellulose) (HPC)
[7] = dose: 200.0 mg/kg/injection, schedule: Q04DX003 (ip), vehicle: Klucel (hydroxypropylcellulose) (HPC)
[8] = dose: 400.0 mg/kg/injection, schedule: Q04DX003 (ip), vehicle: Klucel (hydroxypropylcellulose) (HPC)
[9] = dose: 3.13 mg/kg/injection, schedule: Q01DX009 (ip), vehicle: saline with Tween-80
[10] = dose: 6.25 mg/kg/injection, schedule: Q01DX009 (ip), vehicle: saline with Tween-80
[11] = dose: 12.5 mg/kg/injection, schedule: Q01DX009 (ip), vehicle: saline with Tween-80
[12] = dose: 25.0 mg/kg/injection, schedule: Q01DX009 (ip), vehicle: saline with Tween-80
[13] = dose: 12.5 mg/kg/injection, schedule: Q01DX009 (ip), vehicle: Klucel (hydroxypropylcellulose) (HPC)
[14] = dose: 50.0 mg/kg/injection, schedule: Q01DX009 (ip), vehicle: Klucel (hydroxypropylcellulose) (HPC)

Measured: T/C

CCOC(=O)C(Br)C(=O)OCC
inactive: dose: 0.58 mg/kg/injection, schedule: Q04DX003 (ip), vehicle: saline 97 % of control | dose: 1.17 mg/kg/injection, schedule: Q04DX003 (ip), vehicle: saline 100 % of control | dose: 2.34 mg/kg/injection, schedule: Q04DX003 (ip), vehicle: saline 97 % of control | dose: 4.68 mg/kg/injection, schedule: Q04DX003 (ip), vehicle: saline 93 % of control

COc1ccc(N=NN(C(C)=O)c2ccccc2)cc1
inactive: [1] 102 % of control | [2] 102 % of control

c1cc(NC2CCCCC2)ccc1CN1CCOCC1
inactive: dose: 12.5 mg/kg/injection, schedule: Q01DX009 (ip), vehicle: saline + Tween-80 + alcohol 100 % of control and 104 % of control | dose: 25.0 mg/kg/injection, schedule: Q01DX009 (ip), vehicle: saline + Tween-80 + alcohol 91 % of control and 102 % of control | dose: 50.0 mg/kg/injection, schedule: Q01DX009 (ip), vehicle: saline + Tween-80 + alcohol 91 % of control and 97 % of control | dose: 100.0 mg/kg/injection, schedule: Q01DX009 (ip), vehicle: saline + Tween-80 + alcohol 88 % of control and 97 % of control | dose: 200.0 mg/kg/injection, schedule: Q01DX009 (ip), vehicle: saline + Tween-80 + alcohol 88 % of control and 89 % of control | dose: 400.0 mg/kg/injection, schedule: Q01DX009 (ip), vehicle: saline + Tween-80 + alcohol 95 % of control

Cn1c(Cl)nc2c(Cl)nc(Cl)nc21
inactive: dose: 1.0 mg/kg/injection, schedule: Q01DX009 (ip), vehicle: saline 105 % of control | dose: 2.0 mg/kg/injection, schedule: Q01DX009 (ip), vehicle: saline 100 % of control | dose: 4.0 mg/kg/injection, schedule: Q01DX009 (ip), vehicle: saline 97 % of control | dose: 8.0 mg/kg/injection, schedule: Q01DX009 (ip), vehicle: saline 95 % of control | dose: 16.0 mg/kg/injection, schedule: Q01DX009 (ip), vehicle: saline 92 % of control | dose: 32.0 mg/kg/injection, schedule: Q01DX009 (ip), vehicle: saline 92 % of control

COc1ccccc1NC(=O)c1ccccc1
inactive: [3] 97 % of control | [4] 107 % of control | [5] 97 % of control

Cc1ccc2nc3c4ccccc4c4ccccc4c3nc2c1
inactive: [6] 102 % of control | [7] 97 % of control | [8] 91 % of control

CCCCCCC(=O)CCCCCCCCCCCCC(=O)OC
inactive: dose: 1.56 mg/kg/injection, schedule: Q01DX009 (ip), vehicle: saline with Tween-80 98 % of control | [9] 105 % of control | [10] 97 % of control

COC1=CC(=O)C(C2CC(=O)c3c(O)cc(O)cc3O2)=CC1=O (stereo not drawn)
inactive: [9] 102 % of control | [10] 91 % of control | [11] 89 % of control

Nc1nccc2c1ncn2C1OC(CO)C(O)C1O (stereo not drawn)
inactive: dose: 4.6 mg/kg/injection, schedule: Q03HX024 (ip), vehicle: saline with Tween-80 90 % of control and 109 % of control | dose: 9.3 mg/kg/injection, schedule: Q03HX024 (ip), vehicle: saline with Tween-80 94 % of control and 117 % of control | dose: 18.7 mg/kg/injection, schedule: Q03HX024 (ip), vehicle: saline with Tween-80 98 % of control | dose: 37.5 mg/kg/injection, schedule: Q03HX024 (ip), vehicle: saline with Tween-80 94 % of control

CCCCC(CC)COP(=O)(CC(CC)CCCC)OCC(CC)CCCC (stereo not drawn)
inactive: [10] 94 % of control | dose: 6.25 mg/kg/injection, schedule: Q04DX003 (ip), vehicle: saline 107 % of control | dose: 8.0 mg/kg/injection, schedule: Q04DX003 (ip), vehicle: saline with Tween-80 102 % of control | dose: 12.0 mg/kg/injection, schedule: Q04DX003 (ip), vehicle: saline with Tween-80 97 % of control | [11] 89 % of control | dose: 18.0 mg/kg/injection, schedule: Q04DX003 (ip), vehicle: saline with Tween-80 100 % of control | [12] 86 % of control | dose: 25.0 mg/kg/injection, schedule: Q04DX003 (ip), vehicle: saline 123 % of control

CCN1C(=O)NC(=O)/C(=C/N(CCO)CCO)C1=O
inactive: [1] 111 % of control | [2] 107 % of control | dose: 400.0 mg/kg/injection, schedule: Q01DX009 (ip), vehicle: Klucel (hydroxypropylcellulose) (HPC) 96 % of control

Cc1cc(C)nc(NC(=O)COc2ccc(Cl)cc2)c1
inactive: [13] 97 % of control | [14] 97 % of control and 106 % of control

NCC(=O)NC(CCCCNC(=O)OCc1ccccc1)C(=O)O (stereo not drawn) (H-Gly-[ξK](Cbz)-OH)
inactive: dose: 3.12 mg/kg/injection, schedule: Q01DX009 (ip), vehicle: saline with Tween-80 97 % of control | [10] 101 % of control

CC(C)C(Br)C(=O)NCC(=O)NCC(=O)O (stereo not drawn)
inactive: [4] 91 % of control | [5] 87 % of control

Cc1ccc2c(C)c3c(ccc4ccccc43)c[n+]2c1
inactive: dose: 1.25 mg/kg/injection, schedule: Q01DX009 (ip), vehicle: saline 100 % of control | dose: 2.5 mg/kg/injection, schedule: Q01DX009 (ip), vehicle: saline with Tween-80 95 % of control | dose: 2.5 mg/kg/injection, schedule: Q01DX009 (ip), vehicle: saline 100 % of control | dose: 5.0 mg/kg/injection, schedule: Q01DX009 (ip), vehicle: saline with Tween-80 95 % of control | dose: 5.0 mg/kg/injection, schedule: Q01DX009 (ip), vehicle: saline 100 % of control | dose: 10.0 mg/kg/injection, schedule: Q01DX009 (ip), vehicle: saline 105 % of control

CCC12C=CCN3CCC4(c5cc(C6c7[nH]c8ccccc8c7CCN7CCCCC67)c(OC)cc5N(C)C4C(O)(C(=O)OC)C1OC(C)=O)C32 (stereo not drawn)
inactive: dose: 0.06 mg/kg/injection, schedule: Q01DX009 (ip), vehicle: other 98 % of control | dose: 0.13 mg/kg/injection, schedule: Q01DX009 (ip), vehicle: other 96 % of control | dose: 0.25 mg/kg/injection, schedule: Q01DX009 (ip), vehicle: other 96 % of control | dose: 0.5 mg/kg/injection, schedule: Q01DX009 (ip), vehicle: other 108 % of control | dose: 1.0 mg/kg/injection, schedule: Q01DX009 (ip), vehicle: other 108 % of control | dose: 2.0 mg/kg/injection, schedule: Q01DX009 (ip), vehicle: other 108 % of control

Cc1cc(C)c(NC(=O)N(CCCl)N=O)cc1C
active: dose: 23.0 mg/kg/injection, schedule: Q01DX009 (ip), vehicle: saline 197 % of control | dose: 45.0 mg/kg/injection, schedule: Q01DX009 (ip), vehicle: saline 229 % of control

CCNc1nc(NC(C)C)nc(OC)n1
inactive: [10] 113 % of control | [11] 108 % of control | [12] 110 % of control

OCCCN1CCCCC1CO (stereo not drawn)
inactive: dose: 12.5 mg/kg/injection, schedule: Q01DX009 (ip), vehicle: saline 101 % of control | dose: 25.0 mg/kg/injection, schedule: Q01DX009 (ip), vehicle: saline 99 % of control | dose: 50.0 mg/kg/injection, schedule: Q01DX009 (ip), vehicle: saline 103 % of control | dose: 100.0 mg/kg/injection, schedule: Q01DX009 (ip), vehicle: saline 90 % of control | dose: 200.0 mg/kg/injection, schedule: Q01DX009 (ip), vehicle: saline 116 % of control | dose: 400.0 mg/kg/injection, schedule: Q01DX009 (ip), vehicle: saline 115 % of control

CC/C(=C\c1cccc([N+](=O)[O-])c1)C(=O)O
inactive: [6] 94 % of control | [7] 94 % of control | [8] 91 % of control

CC(=O)ON(C(C)=O)c1ccc(C(N)=O)cc1
inactive: [12] 91 % of control | dose: 50.0 mg/kg/injection, schedule: Q01DX009 (ip), vehicle: saline with Tween-80 89 % of control | [3] 86 % of control | [4] 88 % of control | [5] 94 % of control

C[CH2][Pb]([CH2]C)([CH2]C)[O]C(=O)c1ccccc1
inactive: dose: 0.75 mg/kg/injection, schedule: Q01DX009 (ip), vehicle: Klucel (hydroxypropylcellulose) (HPC) 93 % of control | dose: 1.5 mg/kg/injection, schedule: Q01DX009 (ip), vehicle: Klucel (hydroxypropylcellulose) (HPC) 90 % of control

ClCc1ccc(Oc2ccc(CCl)cc2)cc1
inactive: dose: 6.25 mg/kg/injection, schedule: Q01DX009 (ip), vehicle: Klucel (hydroxypropylcellulose) (HPC) 101 % of control | [13] 101 % of control and 115 % of control | dose: 25.0 mg/kg/injection, schedule: Q01DX009 (ip), vehicle: Klucel (hydroxypropylcellulose) (HPC) 105 % of control | [14] 115 % of control and 124 % of control
